# Test results from US5202315A, “Cephalosporin compounds” (Lucky, Ltd., priority 1989, dated 1993).
# Where two headings read alike, the source gives them in different places.
# How the values were obtained:
# Assay in all cases: Antibacterial activity, MIC
# Format in all cases: cell-based
# [1] = test system: Acinetobacter calcoaceticus ATCC 15473; details: ATCC15473, ATCC 15473, agar two-fold dilution, 37° C., 20 hours, read-out: MIC
# Description: (§1) Also, the in vitro antibacterial activity was determined by the by a two-fold dilution method as described below:
# (§2) That is, the two-fold serial dilutions of the compound were made dispersed in Muller-Hinton agar medium. 2 μl of standard test strain which had the 10^7 CFU per ml was inoculated on the medium, and was incubated at 37° C. for 20 hours.
# [2] = test system: Bacillus cereus ATCC 11778; details: ATCC11778, ATCC 11778, agar two-fold dilution, 37° C., 20 hours, read-out: MIC
# Description: as §1, §2
# [3] = test system: Bacillus megaterium ATCC 9885; details: Priestia megaterium, ATCC9885; ATCC 9885; agar two-fold dilution, 37° C., 20 hours; read-out: MIC
# Description: as §1, §2
# [4] = test system: Citrobacter freundii ATCC 8090; details: ATCC8090, ATCC 8090, agar two-fold dilution, 37° C., 20 hours, read-out: MIC
# Description: as §1, §2
# [5] = test system: Enterobacter aerogenes ATCC 29751; details: Klebsiella aerogenes, ATCC29751; ATCC 29751; agar two-fold dilution, 37° C., 20 hours; read-out: MIC
# Description: as §1, §2
# [6] = test system: Enterobacter cloacae ATCC 27508; details: ATCC27508, ATCC 27508, agar two-fold dilution, 37° C., 20 hours, read-out: MIC
# Description: as §1, §2
# [7] = test system: Escherichia coli ATCC 10536; details: ATCC10536, agar two-fold dilution, 37° C., 20 hours
# Description: as §1, §2
# [8] = test system: Escherichia coli ATCC 25922; details: ATCC25922, agar two-fold dilution, 37° C., 20 hours
# Description: as §1, §2
# [9] = test system: Klebsiella pneumoniae ATCC 10031; details: ATCC10031, ATCC 10031, agar two-fold dilution, 37° C., 20 hours, read-out: MIC
# Description: as §1, §2
# [10] = test system: Micrococcus luteus ATCC 9341; details: ATCC9341, ATCC 9341, agar two-fold dilution, 37° C., 20 hours, read-out: MIC
# Description: as §1, §2
# [11] = test system: Morganella morganii ATCC 8076h; details: ATCC8076H, agar two-fold dilution, 37° C., 20 hours
# Description: as §1, §2
# [12] = test system: Proteus mirabilis ATCC 25933; details: ATCC25933, ATCC 25933, agar two-fold dilution, 37° C., 20 hours, read-out: MIC
# Description: as §1, §2
# [13] = test system: Proteus vulgaris ATCC 6059; details: ATCC6059, ATCC 6059, agar two-fold dilution, 37° C., 20 hours, read-out: MIC
# Description: as §1, §2
# [14] = test system: Providencia rettgeri ATCC 9250; details: ATCC9250, agar two-fold dilution, 37° C., 20 hours
# Description: as §1, §2
# [15] = test system: Pseudomonas aeruginosa ATCC 10145; details: ATCC10145, ATCC 10145, agar two-fold dilution, 37° C., 20 hours, read-out: MIC
# Description: as §1, §2
# [16] = test system: Pseudomonas aeruginosa ATCC 25619; details: ATCC25619, ATCC 25619, agar two-fold dilution, 37° C., 20 hours, read-out: MIC
# Description: as §1, §2
# [17] = test system: Pseudomonas aeruginosa ATCC 27853; details: ATCC27853, ATCC 27853, agar two-fold dilution, 37° C., 20 hours, read-out: MIC
# Description: as §1, §2
# [18] = test system: Salmonella typhimurium ATCC 14028; details: Salmonella enterica; ATCC 14028; agar two-fold dilution, 37° C., 20 hours; read-out: MIC
# Description: as §1, §2
# [19] = test system: Serratia marcescens ATCC 27117; details: ATCC27117, ATCC 27117, agar two-fold dilution, 37° C., 20 hours, read-out: MIC
# Description: as §1, §2
# [20] = test system: Shigella flexneri ATCC 11836; details: ATCC11836, agar two-fold dilution, 37° C., 20 hours
# Description: as §1, §2
# [21] = test system: Shigella sonnei ATCC 11060
# Description: as §1, §2
# [22] = test system: Staphylococcus aureus ATCC 10537; details: ATCC10537, ATCC 10537, agar two-fold dilution, 37° C., 20 hours, read-out: MIC
# Description: as §1, §2
# [23] = test system: Staphylococcus aureus ATCC 6538p; details: ATCC6538P, ATCC 6538p, agar two-fold dilution, 37° C., 20 hours, read-out: MIC
# Description: as §1, §2
# [24] = test system: Staphylococcus epidermidis ATCC 12228; details: ATCC12228, ATCC 12228, agar two-fold dilution, 37° C., 20 hours, read-out: MIC
# Description: as §1, §2
SMILES,MIC [1] [µg/mL],MIC [2] [µg/mL],MIC [3] [µg/mL],MIC [4] [µg/mL],MIC [5] [µg/mL],MIC [6] [µg/mL],MIC [7] [µg/mL],MIC [8] [µg/mL],MIC [9] [µg/mL],MIC [10] [µg/mL],MIC [11] [µg/mL],MIC [12] [µg/mL],MIC [13] [µg/mL],MIC [14] [µg/mL],MIC [15] [µg/mL],MIC [16] [µg/mL],MIC [17] [µg/mL],MIC [18] [µg/mL],MIC [19] [µg/mL],MIC [20] [µg/mL],further results
CO/N=C(\C(=O)NC1C(=O)N2C(C(=O)[O-])=C(CSc3nc(N)cc(N)[n+]3C)CSC12)c1csc(N)n1 (stereo not drawn) [Compound I-10],8,32,0.25,0.063,0.5,≤ 0.008,0.063,0.063,0.016,0.063,≤ 0.008,0.13,0.13,≤ 0.008,32,2,8,0.25,0.063,0.016,"MIC ([21]; ATCC11060, ATCC 11060, agar two-fold dilution, 37° C., 20 hours, read-out: MIC): 0.063 µg/mL; MIC [22]: 0.25 µg/mL; MIC [23]: 0.25 µg/mL; MIC [24]: 0.13 µg/mL"
CCO/N=C(\C(=O)NC1C(=O)N2C(C(=O)[O-])=C(CSc3nc(N)cc(N)[n+]3C)CSC12)c1csc(N)n1 (stereo not drawn) [Compound I-11],4,32,0.13,0.063,0.5,≤ 0.008,0.13,0.13,0.016,0.016,≤ 0.008,0.25,0.25,≤ 0.008,8,2,4,0.25,0.13,0.031,"MIC ([21]; ATCC11060, 20 h): 0.13 µg/mL; MIC [22]: 0.25 µg/mL; MIC [23]: 0.25 µg/mL; MIC [24]: 0.063 µg/mL"
